Results published in patent US20220323468A1, “REDUCED NICOTINAMIDERIBOSIDES FOR THE TREATMENT/PREVENTION OF LIVER DISEASE” (SOCIETE DES PRODUITS NESTLE S.A., priority 2019, published 2022).
Entries after “also recorded” stand apart in the source; their conditions may differ. Where a name gives a salt, the structure may show the parent alone. Read-outs that look alike come from different tables or passages of the source. Values belong to the compound of their own block, whether it stands above or below them.

Columns and labels:
NMNAT = test: NRH-induced NAD+ synthesis with NMNAT inhibitor gallotannin; assay type: cell-based
Excerpt: As a follow-up step, NMNAT enzymes could catalyze the transition from NMNH to NADH.

[1] = Circulating NAM, NRH and NR after IP injection in mice; assay type: in vivo; details: for NAM levels in circulation: mice, IP 500 mg/kg
Excerpt: (§1) Levels of NRH and other NAD-related metabolites in biological samples were obtained by using a cold liquid-liquid extraction using a mixture of methanol:water:chloroform in 5:3:5 (v/v), from which the polar phase was recovered for hydrophilic interaction ultra-high performance liquid chromatography mass spectrometry (UHPLC-MS) analysis. The UHPLC consisted of a binary pump, a cooled autosampler, and a column oven (DIONEX Ultimate 3000 UHPLC+ Focused, Thermo Scientific), connected to a triple quadrupole spectrometer (TSQ Vantage, Thermo Scientific) equipped with a heated electrospray ionisation (H-ESI) source. Of each sample, 2 μL were injected into the analytical column (2.1 mm×150 mm, 5 μm pore size, 200 Å HILICON iHILIC®-Fusion(P)), guarded by a pre-column (2.1 mm×20 mm, 200 Å HILICON iHILIC®-Fusion(P) Guard Kit) operating at 35° C. The mobile phase (10 mM ammonium acetate at pH 9, A, and acetonitrile, B) was pumped at 0.25 mL/min flow rate over a linear gradient of decreasing organic solvent (0.5-16 min, 90-25% B), followed by re-equilibration for a total run time of 30 min. The MS operated in positive mode at 3500 V with multiple reaction monitoring (MRM). The software Xcalibur v4.1.31.9 (Thermo Scientific) was used for instrument control, data acquisition and processing. Retention time and mass detection was confirmed by authentic standards.
(§2) The above results prompted us to test whether NRH could act as an effective NAD+ precursor in vivo. For this, we first intraperitoneally (IP) injected mice with either NR or NRH (500 mg/kg).

[2] = Stability in isolated mouse plasma; assay type: in vitro ADME; details: for compound levels in plasma / generation of NAM in plasma: spiked in isolated mouse plasma, 2 h of incubation
Excerpt: (§3) NR degradation to NAM has been proposed as a limitation for its pharmacological efficacy. To evaluate whether NRH was also susceptible to degradation to NAM, we spiked NRH or NR in isolated mouse plasma. […] We also tested the stability of NRH in other matrixes.

[3] = Tissue NAD+ levels after IP injection in mice; assay type: in vivo; details: IP 500 mg/kg, after 1 h
Procedure: as §2

[4] = tested on: primary hepatocytes from NRK1 knockout (NRK1KO) mice; test: NAD+ levels in primary hepatocytes from control or NRK1 knockout mice; assay type: cell-based; details: after 1 hour of treatment
Excerpt: (§4) The action of NRH was also NAMPT-independent, based on experiments using FK866, a NAMPT inhibitor. If NRH led to NAD+ synthesis via the formation of NMNH, this hypothetical path would require the phosphorylation of NRH into NMNH. Given the essential and rate-limiting role of NRK1 in NR phosphorylation, we wondered whether the ability of NRH to boost NAD+ levels was NRK1 dependent. To answer this question, we evaluated NRH action in primary hepatocytes from either control or NRK1 knockout (NRK1KO) mice. […] Further, they rule out the possibility that NRH-induced NAD+ […] is driven by NRH oxidation into NR.

[5] = Intrahepatic and hepatic mitochondrial NAD+ after IP injection in mice; assay type: in vivo; details: NR 500 mg/kg or equimolar amounts, 1 hour later; for hepatic mitochondrial NAD+ levels: isolated liver mitochondria
Procedure: 10 week old male mice were fasted for 2 hours prior to intraperitoneal injection (IP) with saline as control/vehicle, nicotinamide riboside (NR; 500 mg/kg) or equimolar amounts of dihydronicotinamide riboside (NRH) or nicotinamide (NAM). Then, 1 hour later, mice were euthanized and a piece of liver was snap frozen while another piece was used for mitochondrial isolation following a published procedure (Frezza et al., 2007; Nature Protocols). The piece of snap frozen liver was weighted and submitted to acidic extraction to evaluate NAD+ levels through enzymatic methods. For isolated mitochondria, protein was quantified and 200 micrograms of protein were used for acidic extraction and NAD+ measurement through enzymatic methods. […] All results are mean+/− SEM of n=4 animals per group. * indicates statistical difference at p<0.05 vs. control/vehicle group.

[6] = Plasma NRH, NR and NAM after oral administration in mice; assay type: in vivo
Procedure: (§5) 8 week-old C57BI/6NTac mice were orally gavaged with either saline (as vehicle), NR (500 mg/kg) or NRH (500 mg/kg). After 1 hour, liver, skeletal muscle and kidney NAD^+ levels were evaluated. All results are expressed as mean+/− SEM of n=5 mice per group. * indicates statistical difference at p<0.05 vs. vs. saline-treated mice. # indicates statistical difference at p<0.05 vs. NR treated mice.
as §1
(§6) Oral administration of NRH led to very similar results to those observed after IP administration. […] NRH was detectable in plasma 1 h after oral administration. In contrast, NR levels were undetectable at 1 h after NR administration.

[7] = Stability in FBS supplemented media
Excerpt: as §3

adenosine kinase (AK) = target: T1, adenosine kinase (AK) (Mus musculus, UniProt P55264); test: NRH-induced NAD+ synthesis with adenosine kinase inhibitors; assay type: cell-based; design: effect of AK inhibitor on NRH action (NAD+ synthesis): dose or concentration left out as unconfirmed; details: for effect of AK inhibitor on NRH action (NAD+ synthesis): AML12 cells, inhibitor (5-IT) 1 hour prior to NRH, NAD+ measured 1 hour later
T1 construct: endogenous in cells; host or cells: AML12 cells
Procedure: AML12 cells were treated with an adenosine kinase inhibitor (5-IT; […]) for 1 hour prior to NRH treatment at the doses indicated. Then, 1 hour later, acidic extracts were obtained to measure NAD^+ levels.

[8] = design: species or system mice; details: mouse, in vivo, 250 mg/kg
Procedure: 8 week-old C57Bl/6NTac mice were orally gavaged with either saline (as vehicle), and NRH (250 mg/kg). After 2 hours, liver, skeletal muscle and kidney NRH levels were evaluated. All results are expressed as mean+/− SEM of n=4 mice per group, as areas under the signal by LC-MS analysis, corrected by total protein amount of tissue.
as §1

INS1-cells = test: NAD+ levels in INS1-cells after NRH treatment; assay type: cell-based
[9] = tested on: equilibrative nucleoside transporters (ENTs); test: NRH-induced NAD+ synthesis under ENT blockage; assay type: cell-based; details: in the presence of S-(4-nitrobenzyl)-6-thioinosine (NBTI)
Excerpt: In order to understand the exact path by which NRH synthesizes NAD+, we initially evaluated whether NRH, could be transported into the cell by equilibrative nucleoside transporters (ENTs).

AML12 hepatocytes = test: Intracellular NAD+ levels in AML12 hepatocytes (dose-response and time course); assay type: cell-based
Procedure: Even at such relatively low dose, NRH achieved similar increases in intracellular NAD+ levels to those reached with NR at 50-fold higher concentrations. NRH achieved maximal effects on NAD+ synthesis around the millimolar range, managing to increase intracellular NAD+ levels by more than 10-fold.
NRH actions were also extremely fast (FIG. 3), as significant increases in NAD+ levels were observed within 5 minutes after NRH treatment.

[10] = Hepatic NAD+ levels after oral administration in mice; assay type: in vivo; details: compared with NR
Procedure: as §5, §6

Stability in water = assay type: physicochemical; details: pH=7, at room temperature, 48 h
Excerpt: as §3

C2C12 myotubes = test: NAD+ levels in C2C12 myotubes after NRH treatment; assay type: cell-based
3T3 fibroblasts = test: NAD+ levels in 3T3 fibroblasts after NRH treatment; assay type: cell-based
NAMPT = target: T2, NAMPT (Mus musculus, UniProt Q99KQ4); test: NRH-induced NAD+ synthesis with NAMPT inhibitor FK866; assay type: cell-based; details: experiments using FK866, a NAMPT inhibitor
T2 construct: endogenous in cells
Excerpt: as §4

[11] = tested on: intracellular NRH, NMNH, NR and NMN; test: Intracellular NAD+ related metabolites after treatment (UHPLC-MS); assay type: cell-based
Excerpt: as §1, with “standards. […]” for “standards.”

T1 sequence (P55264 whole entry): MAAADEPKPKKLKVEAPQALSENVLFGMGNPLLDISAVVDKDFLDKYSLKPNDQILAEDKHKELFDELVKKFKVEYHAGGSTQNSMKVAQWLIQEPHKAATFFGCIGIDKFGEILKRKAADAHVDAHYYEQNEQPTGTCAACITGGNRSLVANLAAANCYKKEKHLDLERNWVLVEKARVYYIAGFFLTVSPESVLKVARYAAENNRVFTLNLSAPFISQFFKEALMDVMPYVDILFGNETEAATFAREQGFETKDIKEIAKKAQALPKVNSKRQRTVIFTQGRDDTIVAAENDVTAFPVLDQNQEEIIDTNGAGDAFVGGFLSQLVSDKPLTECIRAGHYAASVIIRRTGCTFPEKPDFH
T2 sequence (Q99KQ4 whole entry): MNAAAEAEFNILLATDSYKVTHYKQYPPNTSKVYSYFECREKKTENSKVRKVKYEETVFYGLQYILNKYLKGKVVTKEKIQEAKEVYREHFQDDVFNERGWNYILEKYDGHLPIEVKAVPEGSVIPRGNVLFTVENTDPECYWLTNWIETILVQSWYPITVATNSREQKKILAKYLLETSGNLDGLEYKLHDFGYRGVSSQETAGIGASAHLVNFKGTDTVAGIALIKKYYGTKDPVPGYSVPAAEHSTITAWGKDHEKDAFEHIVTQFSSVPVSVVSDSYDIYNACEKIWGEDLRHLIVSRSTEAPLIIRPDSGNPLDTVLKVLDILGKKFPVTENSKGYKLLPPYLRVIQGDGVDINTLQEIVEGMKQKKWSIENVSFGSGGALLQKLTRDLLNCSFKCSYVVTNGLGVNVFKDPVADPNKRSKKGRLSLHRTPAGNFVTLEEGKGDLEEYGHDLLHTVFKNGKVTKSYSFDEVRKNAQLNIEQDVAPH

Structure (SMILES): O=C(OC[C@H]1O[C@@H](OC(=O)c2cc(O)c(O)c(OC(=O)c3cc(O)c(O)c(O)c3)c2)[C@H](OC(=O)c2cc(O)c(O)c(OC(=O)c3cc(O)c(O)c(O)c3)c2)[C@@H](OC(=O)c2cc(O)c(O)c(OC(=O)c3cc(O)c(O)c(O)c3)c2)[C@@H]1OC(=O)c1cc(O)c(O)c(OC(=O)c2cc(O)c(O)c(O)c2)c1)c1cc(O)c(O)c(OC(=O)c2cc(O)c(O)c(O)c2)c1 [gallotannin]
effect of NMNAT inhibitor on NAD+ synthesis after NRH treatment (NMNAT): largely compromised NAD+ synthesis
effect of NMNAT inhibitor on NRH action (NMNAT; NRH at maximal doses (0.5 mM)): part of the NRH action remained
effect of NMNAT inhibitor on NRH action (NMNAT; NRH at submaximal doses): totally blocked

NAM levels in circulation [1]: highly increased
compound levels in plasma [2]: decayed
generation of NAM in plasma [2]: increase in NAM
NAD+ levels in NRK1KO derived primary hepatocytes [4]: failed to increase NAD+ levels
circulating NAM relative to that after NRH treatment ([6]; C57BI/6NTac, mouse, in vivo, po, 1 h): ~4 fold
administered compound in plasma ([6]; mouse, in vivo, po): undetectable
circulating NAM ([6]; mouse, in vivo, po): large increases
degradation to NAM ([7]; FBS supplemented media): as occurs with NR
Structure (SMILES): NC(=O)c1ccc[n+]([C@@H]2O[C@H](CO)[C@H](O)C2O)c1 (stereo partly drawn) [NR, 1-b-D-ribofuranosyl-3-pyridinecarboxamide salt, reference compound]
NAD+ levels in kidney [3]: increased NAD+ levels
NAD+ levels in liver [3]: increased NAD+ levels
NAD+ levels in muscle [3]: increased NAD+ levels
intrahepatic NAD+ [5]: increase intrahepatic NAD+
hepatic mitochondrial NAD+ levels [5]: only NRH increases mitochondrial NAD+ levels

effect of AK inhibitor on NRH action (NAD+ synthesis) (adenosine kinase (AK)): confirmed
Structure (SMILES): Nc1ncnc2nc(-c3ccc(N4CCOCC4)nc3)cc(-c3cccc(Br)c3)c12 [ABT-702]

Structure (SMILES): NC(=O)C1=CN([C@@H]2O[C@H](CO)[C@@H](O)[C@H]2O)C=CC1 [NRH]
NAM levels in circulation [1]: only a very mild increase
NR in circulation ([1]; mouse, in vivo, ip): much higher levels than those detected after NR injection itself
NRH in circulation ([1]; mouse, in vivo, ip): detectable in circulation
NR production in plasma ([2]; incubation in isolated plasma): did not lead to NR production
compound levels in plasma [2]: remained stable
generation of NAM in plasma [2]: NAM was not generated; also recorded: did not significantly alter NAM levels
NAD+ levels in kidney [3]: increased NAD+ levels
NAD+ levels in liver [3]: increased NAD+ levels
NAD+ levels in muscle [3]: increased NAD+ levels
NRH in kidney [8]: found intact, in high levels
NRH in liver [8]: found intact, in high levels
NRH in muscle [8]: found intact, in high levels
generation of NMNH, NADH and NAD+ from NRH (adenosine kinase (AK); metabolomic analyses, upon inhibition of AK): fully blunted
NAD+ levels (INS1-cells): highly elevated
NAD+ levels in NRK1KO derived primary hepatocytes [4]: not affected by NRK1 deficiency
capacity as extracellular NAD+ precursor under ENT blockage [9]: largely lost its capacity as an extracellular NAD+ precursor
time to significant increase in NAD+ levels after treatment (AML12 hepatocytes; AML12 hepatocytes, FIG. 3): ≤ 5 min
ability to increase intracellular NAD+ (AML12 hepatocytes; AML12 hepatocytes, compared with NR): superior to that of NR
concentration at which NAD+ levels are significantly increased (AML12 hepatocytes; AML12 hepatocytes, dose-response, FIG. 2): 10 µM
fold higher NR concentration needed to reach similar increases in intracellular NAD+ (AML12 hepatocytes; NRH at 10 μM versus NR): 50 fold
maximal increase of intracellular NAD+ levels (AML12 hepatocytes; around the millimolar range): more than 10 fold
effect on hepatic NAD+ levels [10]: more potent effect on hepatic NAD+ levels than NR
stability in water (Stability in water): certified NRH stability
NAD+ levels (C2C12 myotubes): highly elevated
intrahepatic NAD+ [5]: increase intrahepatic NAD+
hepatic mitochondrial NAD+ levels [5]: only NRH increases mitochondrial NAD+ levels
NAD+ levels (3T3 fibroblasts): highly elevated
NRH concentration in plasma ([6]; mice, after oral gavage): 11.16 ± 1.74 µM
administered compound in plasma ([6]; mouse, in vivo, po): detectable
dependence of NAD+ increasing action on NAMPT (NAMPT): NAMPT-independent
intracellular detection of NRH and NMNH ([11]; 5 minutes after treatment): could be detected intracellularly
intracellular NR and NMN ([11]; after treatment, compared with NR): increase in intracellular NR and NMN, greater than that triggered by NR itself
degradation to NAM [7]: did not degrade to NAM

Structure (SMILES): NC(=O)c1cccnc1 [NAM, nicotinamide]
intrahepatic NAD+ [5]: increase intrahepatic NAD+
hepatic mitochondrial NAD+ levels [5]: only NRH increases mitochondrial NAD+ levels

Structure (SMILES): Nc1ncnc2c1c(I)cn2[C@@H]1O[C@H](CO)[C@@H](O)[C@H]1O [5-IT, 5-iodotubercidin]
effect of AK inhibitor on NRH action (NAD+ synthesis) (adenosine kinase (AK)): fully ablated the action of NRH
formation of NR and NMN after NRH treatment (adenosine kinase (AK); with 5-IT treatment): prevented the formation of NR and NMN
